Results as given in ChEMBL document CHEMBL5107956, “Natural products from mangrove sediments-derived microbes: Structural diversity, bioactivities, biosynthesis, and total synthesis” (Eur J Med Chem, 2022).
pIC50: −log10 of the molar value. Values after ≈ are worked out from the molar mass of the structure shown.

Columns and labels:
HeLa = assay: Cytotoxicity against human HeLa cells assessed as cell growth inhibition by MTT assay; format: functional, cell-based
[1] = tested on: Trypanosoma brucei brucei; assay: Antitrypanosomal activity against Trypanosoma brucei brucei GUTat3.1 assessed as parasite growth inhibition measured after 72 hrs by alamar blue staining based analysis; format: functional, organism-based; conditions: GUTat3.1, 72 h
[2] = tested on: Colletotrichum gloeosporioides; assay: Antifungal activity against Colletotrichum gloeosporioides assessed as inhibition of fungal growth measured after 72 hrs by micro plate reader analysis; format: functional
SGC-7901 = assay: Cytotoxicity against human SGC-7901 cells assessed as cell growth inhibition measured after 48 hrs by MTT assay; format: functional, cell-based; conditions: SGC-7901, 48 h
[3] = tested on: Pseudopestalotiopsis theae; assay: Antifungal activity against Pestalotiopsis theae assessed as fungal cell growth inhibition; format: functional; conditions: read-out: ED50 (the source's name)
[4] = molecular target: Angiotensin-converting enzyme (Homo sapiens, UniProt P12821); assay: Inhibition of ACE (unknown origin) using hippuryl-histidyl-leucine as substrate pre-incubated with compound for 10 mins followed by substrate addition measured after 60 mins by HPLC analysis
OS-RC-2 = assay: Antiproliferative activity against human OS-RC-2 cells assessed as cell growth inhibition measured after 72 hrs by CCK-8 assay; format: functional, cell-based; conditions: OS-RC-2, 72 h
Candida albicans = assay: Antifungal activity against Candida albicans assessed as fungal growth inhibition measured after 20 hrs; format: functional
Salmonella enterica = assay: Antibacterial activity against Salmonella enterica ATCC 6539 assessed as bacterial cell growth inhibition measured after 24 hrs by Bactiter-glo assay; format: functional
RAW264.7 = assay: Antiinflammatory activity against LPS-induced mouse RAW264.7 cells assessed as inhibition of NO production measured after 24 hrs […]; format: functional, cell-based; conditions: RAW264.7, 24 h
[5] = molecular target: Phosphotyrosine-protein phosphatase PTPB (Mycobacterium tuberculosis, UniProt P96830); assay: Inhibition of N-terminal His6-tagged Mycobacterium tuberculosis H37Rv PTPB using 6,8-difluoromethylumbelliferyl phosphate as substrate incubated for 30 mins by fluorescence based analysis
SMMC-7721 = assay: Antiproliferative activity against human SMMC-7721 cells assessed as cell growth inhibition; format: functional, cell-based
20S proteasome = assay: Inhibition of 20S proteasome (unknown origin) by fluorescence based assay; format: protein-complex assay, Homo sapiens
[6] = tested on: Limimaricola hongkongensis; assay: Antibacterial activity against Limimaricola hongkongensis assessed as bacterial growth inhibition measured after 24 hrs by optical density based analysis; format: functional
Staphylococcus aureus = assay: Antibacterial activity against Staphylococcus aureus assessed as bacterial growth inhibition measured after 24 hrs by optical density based analysis; format: functional
MCF7 [7] = assay: Cytotoxicity against human MCF7 cells assessed as cell growth inhibition; format: functional, cell-based
[8] = Cytotoxicity against human HM02 cells assessed as cell growth inhibition; format: functional
HepG2 [9] = assay: Cytotoxicity against human HepG2 cells assessed as cell growth inhibition; format: functional
A549 [10] = assay: Antiproliferative activity against human A549 cells assessed as cell growth inhibition by MTT assay; format: functional, cell-based
HL-60 [11] = assay: Antiproliferative activity against human HL-60 cells assessed as cell growth inhibition by MTT assay; format: functional, cell-based
HCT-116 [12] = assay: Cytotoxicity against human HCT-116 cells assessed as cell growth inhibition by SRB assay; format: functional, cell-based
SW-620 = assay: Cytotoxicity against human SW-620 cells assessed as cell growth inhibition by SRB assay; format: functional, cell-based
MCF7 [13] = assay: Cytotoxicity against human MCF7 cells assessed as cell growth inhibition by MTT assay; format: functional, cell-based
A549 [14] = assay: Cytotoxicity against human A549 cells assessed as cell growth inhibition by MTT assay; format: functional, cell-based
HepG2 [15] = assay: Cytotoxicity against human HepG2 cells assessed as cell growth inhibition by MTT assay; format: functional, cell-based
A-375 = assay: Cytotoxicity against human A-375 cells assessed as cell growth inhibition by MTT assay; format: functional, cell-based
NCI-H1975 = assay: Cytotoxicity against human NCI-H1975 cells assessed as cell growth inhibition measured after 72 hrs by MTT assay; format: functional, cell-based; conditions: NCI-H1975, 72 h
HL-60 [16] = assay: Cytotoxicity against human HL-60 cells assessed as cell growth inhibition measured after 72 hrs by MTT assay; format: functional, cell-based; conditions: HL-60, 72 h
[17] = Toxicity in brine shrimp assessed as induction of lethality; conditions: artemia salina; read-out: LD50 (the source's name)
OVCAR-3 = assay: Cytotoxicity against human OVCAR-3 cells assessed as cell growth inhibition; format: functional
HOP-92 = assay: Cytotoxicity against human HOP-92 cells assessed as cell growth inhibition; format: functional
LOX IMVI = assay: Cytotoxicity against human LOX IMVI cells assessed as cell growth inhibition; format: functional
HCT-116 [18] = assay: Cytotoxicity against human HCT-116 cells assessed as cell growth inhibition; format: functional
PC-3 = assay: Cytotoxicity against human PC-3 cells assessed as cell growth inhibition; format: functional

Sequence of Phosphotyrosine-protein phosphatase PTPB (P96830 whole entry): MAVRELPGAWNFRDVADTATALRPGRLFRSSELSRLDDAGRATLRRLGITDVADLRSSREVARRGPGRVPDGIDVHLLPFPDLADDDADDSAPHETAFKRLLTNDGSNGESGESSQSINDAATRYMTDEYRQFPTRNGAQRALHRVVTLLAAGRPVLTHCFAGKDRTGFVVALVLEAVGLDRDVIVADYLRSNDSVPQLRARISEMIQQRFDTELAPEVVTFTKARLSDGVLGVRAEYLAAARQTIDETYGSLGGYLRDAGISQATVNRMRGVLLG
Sequence of Angiotensin-converting enzyme (P12821 whole entry): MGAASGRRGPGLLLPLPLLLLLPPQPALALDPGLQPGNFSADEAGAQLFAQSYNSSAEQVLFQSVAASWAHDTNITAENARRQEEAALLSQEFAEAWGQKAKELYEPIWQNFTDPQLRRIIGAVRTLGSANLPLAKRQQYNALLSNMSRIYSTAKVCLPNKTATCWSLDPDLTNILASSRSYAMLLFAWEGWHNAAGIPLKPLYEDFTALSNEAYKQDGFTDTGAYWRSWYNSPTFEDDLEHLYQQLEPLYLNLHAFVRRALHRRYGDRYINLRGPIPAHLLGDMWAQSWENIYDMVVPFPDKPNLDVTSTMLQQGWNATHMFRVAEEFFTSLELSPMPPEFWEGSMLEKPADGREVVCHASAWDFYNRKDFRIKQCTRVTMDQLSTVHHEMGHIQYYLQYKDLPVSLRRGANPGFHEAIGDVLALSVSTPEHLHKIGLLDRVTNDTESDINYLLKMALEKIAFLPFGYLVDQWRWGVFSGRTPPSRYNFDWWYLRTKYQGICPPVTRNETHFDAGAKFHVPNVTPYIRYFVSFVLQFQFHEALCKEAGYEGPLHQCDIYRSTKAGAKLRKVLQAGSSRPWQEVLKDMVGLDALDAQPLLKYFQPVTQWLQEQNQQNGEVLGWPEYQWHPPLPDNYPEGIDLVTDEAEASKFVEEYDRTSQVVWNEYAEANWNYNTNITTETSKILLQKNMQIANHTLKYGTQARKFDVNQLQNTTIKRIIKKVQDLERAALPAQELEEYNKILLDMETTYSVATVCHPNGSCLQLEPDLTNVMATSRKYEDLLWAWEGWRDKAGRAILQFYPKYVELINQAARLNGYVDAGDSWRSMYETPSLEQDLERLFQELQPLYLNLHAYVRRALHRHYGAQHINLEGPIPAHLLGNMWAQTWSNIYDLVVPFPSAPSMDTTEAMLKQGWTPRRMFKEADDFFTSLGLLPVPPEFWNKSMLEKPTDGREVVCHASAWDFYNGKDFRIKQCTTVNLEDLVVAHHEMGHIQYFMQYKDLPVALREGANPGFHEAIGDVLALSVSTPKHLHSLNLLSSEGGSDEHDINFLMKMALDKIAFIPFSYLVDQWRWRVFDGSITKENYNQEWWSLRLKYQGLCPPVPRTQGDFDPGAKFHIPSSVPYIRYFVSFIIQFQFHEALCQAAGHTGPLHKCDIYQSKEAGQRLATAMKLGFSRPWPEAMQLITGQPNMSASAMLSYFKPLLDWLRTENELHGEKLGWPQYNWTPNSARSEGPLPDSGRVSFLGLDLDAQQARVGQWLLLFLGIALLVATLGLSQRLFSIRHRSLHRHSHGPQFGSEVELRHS

CCC(=O)OCc1c(OCC=C(C)C)c(C)cc(OC)c1C(=O)c1c(O)ccc2c1OC(C)(C)C=C2
pIC50 (HeLa): 5.04

CCCC1C(O)=C2CCC3(C)CC(C)C(O3)C(C)C(O)C(C)C(=O)CC1OC2=O (centres undefined)
IC50 [1]: 2.4 µg/mL (≈ 5.87 µM)

CC1=CC[C@]23C[C@@H]1C[C@@](C)(O)[C@H]2[C@H](O)C[C@@H]3C
MIC [2]: 1 µg/mL (≈ 4.23 µM)

CC[C@H]1/C=C/C[C@H](CC(C)C)OC(=O)/C(C)=C\[C@@H]2C(=O)NC3=CC(=O)c4c(cc(C)c(O)c4C(=O)CC1)[C@@]32O
pIC50 (SGC-7901): 5.33

CC(=C\C(=O)O)/C=C(\C)CC(C)/C=C/CC[C@H]1OC(=O)[C@@H]1CO (some centres undefined)
EC50 [3]: 38.1 µg/mL (≈ 118 µM)

CC(=O)C[C@]1(O)C(=O)C2=C3O[C@H](C)C(C)(C)[C@]3(O)C(=O)c3c(C)cc(O)c(c32)C1=O
pIC50 [4]: 4.95

C/C=C(\C)[C@H](O)[C@H](C)/C=C(/C=C/C/C(C)=C/Cc1nc(OC)c(OC)c(O)c1C)CC
pIC50 (OS-RC-2): 5.35

CCCCCC[C@H]1C(=O)O[C@H](C)[C@H](NC(=O)c2cccc(NC=O)c2O)C(=O)O[C@@H](C)[C@@H]1OC(C)=O
MIC (Candida albicans): 5 µg/mL (≈ 9.87 µM)

Cc1cc2c3c(c1C)C(C)(C)CCn3c(=O)c(=O)n2C[C@H](O)[C@H](O)[C@H](O)CO
MIC (Salmonella enterica): 12.4 µM (≈ 4.87 µg/mL)

CC(C)[C@@H](C)/C=C\[C@@H](C)[C@@]1(C)C[C@H]2C3=C4[C@@H](C=C5C[C@@H](O)CC[C@]5(C)[C@H]4CC[C@@]31C)[C@H](C(=O)O)[C@H]2C(=O)O
pIC50 (RAW264.7): 5.44
pIC50 [5]: 4.52

CC(C)[C@@H](C)/C=C/[C@@H](C)[C@@]1(C)C[C@H]2C3=C4[C@@H](C=C5C[C@@H](O)CC[C@]5(C)[C@H]4CC[C@@]31C)[C@H](C(=O)O)[C@H]2C(=O)O
pIC50 (RAW264.7): 5.35
pIC50 [5]: 4.82

Cc1ccc(OC(=O)CCN)cc1
IC50 (SMMC-7721): 22 µg/mL (≈ 123 µM)

CC(C)[C@H](O)[C@@]12NC(=O)[C@H](C)[C@@H]1OC2=O [OMURALIDE]
pIC50 (20S proteasome): 7.31

CC(O)[C@H](NC(=O)c1cccc(NC=O)c1O)C(=O)O[C@@H](C)[C@H](OC(=O)Cc1ccccc1)[C@@H](C)C(=O)O (some centres undefined)
MIC [6]: 8 µg/mL (≈ 15.1 µM)
MIC (Staphylococcus aureus): 32 µg/mL (≈ 60.3 µM)

CC(C)CCC[C@H]1CCCCC(=O)O1
GI50 (MCF7 [7]): 0.11 µg/mL (≈ 0.555 µM)
GI50 [8]: 0.11 µg/mL (≈ 0.555 µM)
GI50 (HepG2 [9]): 0.11 µg/mL (≈ 0.555 µM)

COC1=C(CO)O[C@@H]2C[C@@]1(OC)n1c3ccccc3c3c4c(c5c6ccccc6n2c5c31)C(=O)NC4
pIC50 (A549 [10]): 5.30
pIC50 (HL-60 [11]): 5.85

COc1cc(C)c2c(O)c3c(cc2c1)[C@@H](O)CCC3=O
pIC50 (HCT-116 [12]): 6.20
pIC50 (SW-620): 6.20

COc1ccc(C[C@@H]2NC(=O)[C@@]34OC(=O)O/C=C/[C@@](C)(O)C(=O)[C@@H](C)C/C=C/[C@H]3[C@@H]3O[C@]3(C)[C@@H](C)[C@@H]24)cc1
pIC50 (MCF7 [13]): 6.33
pIC50 (A549 [14]): 6.33
pIC50 (HepG2 [15]): 6.33
pIC50 (A-375): 6.33

C/C=C/C1=CC(=O)[C@@]2(C(=O)c3c(OC)cc(OC)cc3C(=O)OC)O[C@H]2O1
pIC50 (NCI-H1975): 5.43
pIC50 (HL-60 [16]): 5.43

CCCCC[C@@H]1Cc2cc(O)cc(O)c2C(=O)O1
LC50 [17]: 36.4 µg/mL (≈ 145 µM)

CC[C@H](C)CCC[C@H]1CCCCC(=O)O1
GI50 (MCF7 [7]): 0.11 µg/mL (≈ 0.518 µM)
GI50 [8]: 0.11 µg/mL (≈ 0.518 µM)
GI50 (HepG2 [9]): 0.11 µg/mL (≈ 0.518 µM)

C[C@@]12OC(=O)[C@]1([C@@H](O)[C@@H]1C=CCCC1)NC(=O)[C@@H]2CCCl [MARIZOMIB]
GI50 (OVCAR-3): < 0.011 µM
GI50 (HOP-92): < 0.011 µM
GI50 (LOX IMVI): < 0.011 µM
GI50 (HCT-116 [18]): 0.035 µM
GI50 (PC-3): < 0.011 µM
